Reference: PubChem BioAssay AID588773 (The Scripps Research Institute Molecular Screening Center, 2011)
Activity calls are given as the source filed them.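 The calls were made as follows: active = inhibition of plasma PAF acetylhydrolase at a set limit or more at 0.1 µM, with tenfold selectivity over all off-targets; inactive = inhibition below the limit or weaker selectivity.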

Columns and labels:
ABHD3 = assay: competitive ABPP of pPAFAH versus proteome off-targets – biochemical, gel-based, FP-Rh fluorescence, mouse, HTS hit compounds, selectivity assay for pPAFAH inhibitor project, late-stage follow-up (AID 588773); conditions: at 10 µM
ABHD4 = ABHD4 (UniProt Q8VD66); assay: as above; conditions: at 10 µM
Sequence of ABHD4 (Q8VD66 whole entry, looked up): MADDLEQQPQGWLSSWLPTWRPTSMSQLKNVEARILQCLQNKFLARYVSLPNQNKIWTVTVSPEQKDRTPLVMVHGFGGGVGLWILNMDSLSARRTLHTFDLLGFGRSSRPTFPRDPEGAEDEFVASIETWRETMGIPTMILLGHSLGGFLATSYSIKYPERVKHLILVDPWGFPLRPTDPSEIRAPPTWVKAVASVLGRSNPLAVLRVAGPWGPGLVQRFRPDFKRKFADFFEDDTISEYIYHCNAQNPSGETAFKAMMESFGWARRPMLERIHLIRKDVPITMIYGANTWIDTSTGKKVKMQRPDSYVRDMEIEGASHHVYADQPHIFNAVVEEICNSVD

ABHD6 = assay: as above; conditions: for inhibition: stronger effect = higher value
FAAH = assay: as above; conditions: stronger effect = higher value
LYPLA1 = assay: as above; conditions: at 10 µM
LYPLA2 = assay: as above; conditions: at 10 µM
[1] = target: Monoglyceride lipase (Mus musculus) (UniProt O35678); assay: as above; conditions: MAGL; for inhibition: stronger effect = higher value
Sequence of Monoglyceride lipase (Mus musculus) (O35678 whole entry, looked up): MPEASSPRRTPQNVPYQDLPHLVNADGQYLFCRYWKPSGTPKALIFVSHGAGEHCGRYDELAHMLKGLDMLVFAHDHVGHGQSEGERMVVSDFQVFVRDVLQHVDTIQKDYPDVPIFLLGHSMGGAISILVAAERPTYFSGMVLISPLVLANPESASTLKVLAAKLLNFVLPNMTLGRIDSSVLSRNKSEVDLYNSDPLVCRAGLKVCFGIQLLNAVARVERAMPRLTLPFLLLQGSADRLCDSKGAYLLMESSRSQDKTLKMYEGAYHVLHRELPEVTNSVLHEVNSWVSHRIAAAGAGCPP

[2] = target: Platelet-activating factor acetylhydrolase (Mus musculus) (UniProt Q60963); assay: as above; conditions: pPAFAH, stronger effect = higher value
Sequence of Platelet-activating factor acetylhydrolase (Mus musculus) (Q60963 whole entry, looked up): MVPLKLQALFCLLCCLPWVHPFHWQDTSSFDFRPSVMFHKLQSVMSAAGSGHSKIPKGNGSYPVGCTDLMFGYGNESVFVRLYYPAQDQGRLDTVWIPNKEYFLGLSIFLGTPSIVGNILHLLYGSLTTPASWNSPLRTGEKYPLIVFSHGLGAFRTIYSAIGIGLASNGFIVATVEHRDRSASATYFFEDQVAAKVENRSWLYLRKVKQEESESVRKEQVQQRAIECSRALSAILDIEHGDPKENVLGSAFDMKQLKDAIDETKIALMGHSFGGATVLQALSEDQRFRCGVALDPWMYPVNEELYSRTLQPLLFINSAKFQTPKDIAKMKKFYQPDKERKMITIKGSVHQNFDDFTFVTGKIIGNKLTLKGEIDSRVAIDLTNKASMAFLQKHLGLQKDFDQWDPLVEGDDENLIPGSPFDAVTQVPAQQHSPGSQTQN

[3] = as above; conditions: MW 30 kDa protein, stronger effect = higher value

O=C(Oc1ccc(Oc2ccccc2)cc1)N1CCC(O)CC1
outcome (ABHD3): inactive | outcome (ABHD4): inactive | inhibition (ABHD6; at 10 µM): 39% (inactive) | inhibition (ABHD6; inhibition, at 1 µM): 19% | inhibition (FAAH; at 10 µM): 17% (inactive) | inhibition (FAAH; inhibition, at 1 µM): 2% | outcome (LYPLA1): inactive | outcome (LYPLA2): inactive | outcome ([1]; at 10 µM): inactive | inhibition ([2]; at 10 µM): 92% (inactive) | inhibition ([2]; inhibition, at 1 µM): 62%

O=C(Oc1ccc([N+](=O)[O-])cc1)N1CCC(N2CCCCC2)CC1
inhibition ([3]; at 1 µM): 22% | outcome (ABHD3): inactive | outcome (ABHD4): inactive | inhibition (ABHD6; at 10 µM): 48% (inactive) | inhibition (ABHD6; inhibition, at 1 µM): 22% | inhibition (FAAH; at 10 µM): 60% (inactive) | inhibition (FAAH; inhibition, at 1 µM): 30% | outcome (LYPLA1): inactive | outcome (LYPLA2): inactive | inhibition ([1]; at 10 µM): 45% (inactive) | inhibition ([1]; inhibition, at 1 µM): 23% | inhibition ([2]; at 10 µM): 92% (inactive) | inhibition ([2]; inhibition, at 1 µM): 66%

CN(C)C(=O)Oc1noc2cc(Cl)ccc12
inhibition ([3]; at 1 µM): 6% | outcome (ABHD3): inactive | outcome (ABHD4): inactive | inhibition (ABHD6; at 10 µM): 65% (inactive) | inhibition (ABHD6; inhibition, at 0.1 µM): 21% | inhibition (ABHD6; inhibition, at 1 µM): 26% | inhibition (FAAH; at 10 µM): 100% | inhibition (FAAH; inhibition, at 0.1 µM): 100% | inhibition (FAAH; inhibition, at 1 µM): 100% | outcome (LYPLA1): inactive | outcome (LYPLA2): inactive | inhibition ([1]; at 10 µM): 33% (inactive) | inhibition ([1]; inhibition, at 1 µM): 2% | inhibition ([2]; at 10 µM): 100% (inactive) | inhibition ([2]; inhibition, at 0.1 µM): 47% | inhibition ([2]; inhibition, at 1 µM): 92%

O=C(CCCSc1ccc(Cl)cc1)Nc1cc(S(=O)(=O)N2CCOCC2)ccc1O
outcome (ABHD3): inactive | outcome (ABHD4): inactive | inhibition (ABHD6; at 10 µM): 26% (inactive) | inhibition (FAAH; at 10 µM): 25% (inactive) | outcome (LYPLA1): inactive | outcome (LYPLA2): inactive | inhibition ([1]; at 10 µM): 27% (inactive) | inhibition ([2]; at 10 µM): 88% (inactive) | inhibition ([2]; inhibition, at 0.1 µM): 18% | inhibition ([2]; inhibition, at 1 µM): 50%

O=C(Oc1ccc(-c2ccccc2)cc1)N1CCOCC1
inhibition ([3]; at 0.1 µM): 21% | inhibition ([3]; at 1 µM): 27% | outcome (ABHD3): inactive | outcome (ABHD4): inactive | inhibition (ABHD6; at 10 µM): 25% (inactive) | inhibition (ABHD6; inhibition, at 0.1 µM): 12% | inhibition (ABHD6; inhibition, at 1 µM): 16% | inhibition (FAAH; at 10 µM): 83% (inactive) | inhibition (FAAH; inhibition, at 0.1 µM): 23% | inhibition (FAAH; inhibition, at 1 µM): 31% | outcome (LYPLA1): inactive | outcome (LYPLA2): inactive | inhibition ([1]; at 10 µM): 20% (inactive) | inhibition ([1]; inhibition, at 1 µM): 6% | inhibition ([2]; at 10 µM): 94% (inactive) | inhibition ([2]; inhibition, at 0.1 µM): 32% | inhibition ([2]; inhibition, at 1 µM): 78%

O=C(/C=C/c1cccs1)c1cc(Br)ccc1OC(=O)N1CCOCC1
outcome (ABHD3): inactive | outcome (ABHD4): inactive | outcome (ABHD6; at 10 µM): inactive | inhibition (FAAH; at 10 µM): 61% (inactive) | inhibition (FAAH; inhibition, at 1 µM): 18% | outcome (LYPLA1): inactive | outcome (LYPLA2): inactive | outcome ([1]; at 10 µM): inactive | inhibition ([2]; at 10 µM): 75% (inactive) | inhibition ([2]; inhibition, at 1 µM): 56%

O=C(Oc1ccc(-c2ccccc2)cc1)N1CCCCC1
inhibition ([3]; at 0.1 µM): 18% | inhibition ([3]; at 1 µM): 60% | outcome (ABHD3): inactive | outcome (ABHD4): inactive | inhibition (ABHD6; at 10 µM): 53% (inactive) | inhibition (ABHD6; inhibition, at 1 µM): 34% | inhibition (FAAH; at 10 µM): 99% (inactive) | inhibition (FAAH; inhibition, at 1 µM): 56% | outcome (LYPLA1): inactive | outcome (LYPLA2): inactive | inhibition ([1]; at 10 µM): 40% (inactive) | inhibition ([1]; inhibition, at 1 µM): 36% | inhibition ([2]; at 10 µM): 95% (inactive) | inhibition ([2]; inhibition, at 0.1 µM): 35% | inhibition ([2]; inhibition, at 1 µM): 33%

O=C(Oc1nsnc1N1CCOCC1)N1CCOCC1
inhibition ([3]; at 0.1 µM): 4% | inhibition ([3]; at 1 µM): 23% | outcome (ABHD3): inactive | outcome (ABHD4): inactive | inhibition (ABHD6; at 10 µM): 39% (inactive) | inhibition (ABHD6; inhibition, at 1 µM): 29% | inhibition (FAAH; at 10 µM): 85% (inactive) | inhibition (FAAH; inhibition, at 1 µM): 80% | outcome (LYPLA1): inactive | outcome (LYPLA2): inactive | outcome ([1]; at 10 µM): inactive | inhibition ([2]; at 10 µM): 86% (inactive) | inhibition ([2]; inhibition, at 1 µM): 28%

CCCCOC(=O)c1ccc(OC(=O)N2CCOCC2)cc1
outcome (ABHD3): inactive | outcome (ABHD4): inactive | inhibition (ABHD6; at 10 µM): 22% (inactive) | inhibition (ABHD6; inhibition, at 1 µM): 9% | inhibition (FAAH; at 10 µM): 62% (inactive) | inhibition (FAAH; inhibition, at 1 µM): 30% | outcome (LYPLA1): inactive | outcome (LYPLA2): inactive | outcome ([1]; at 10 µM): inactive | inhibition ([2]; at 10 µM): 90% (inactive) | inhibition ([2]; inhibition, at 0.1 µM): 5% | inhibition ([2]; inhibition, at 1 µM): 70%
